From PubChem BioAssay AID248 (DTP/NCI, 2004)
Where “and” joins values, the source holds several entries; their conditions need not be identical. Equal values may be shown once. Inconclusive results and toxic doses are left out.

Test system: L1210 leukemia ip in BDF1 mice, survival T/C
Experiment: NCI In Vivo Anticancer Drug Screen. Data for tumor model L1210 Leukemia (intraperitoneal) in B6D2F1 (BDF1) mice
Settings: endpoint: mean survival time, higher = longer survival
In short: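 Read-out is survival time, reported as the treated-group measurement over the vehicle-control measurement.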

[1] = dose: 100.0 mg/kg/injection, schedule: Q04DX003 (ip), vehicle: Klucel (hydroxypropylcellulose) (HPC)
[2] = dose: 200.0 mg/kg/injection, schedule: Q01DX009 (ip), vehicle: Klucel (hydroxypropylcellulose) (HPC)
[3] = dose: 200.0 mg/kg/injection, schedule: Q04DX003 (ip), vehicle: Klucel (hydroxypropylcellulose) (HPC)
[4] = dose: 400.0 mg/kg/injection, schedule: Q04DX003 (ip), vehicle: Klucel (hydroxypropylcellulose) (HPC)

C/C=C(/Cl)c1c(C)cc(C)c(CC(=O)O)c1C
T/C [1]: 92 % of control | T/C (dose: 130.0 mg/kg/injection, schedule: Q01DX009 (ip), vehicle: Klucel (hydroxypropylcellulose) (HPC)): 110 % of control | T/C [2]: 114 % of control | T/C [3]: 90 % of control | T/C [4]: 105 % of control

CCN(CC)CCOC(=O)C(O)(c1ccccc1)c1ccccc1
T/C (dose: 25.0 mg/kg/injection, schedule: Q04DX002 (ip), vehicle: saline): 101 % of control | T/C (dose: 50.0 mg/kg/injection, schedule: Q04DX002 (ip), vehicle: saline): 93 % of control | T/C (dose: 100.0 mg/kg/injection, schedule: Q04DX002 (ip), vehicle: saline): 93 % of control and 115 % of control

COC1=C(OC)C(=O)c2c(c(=O)c3ccccc3n2C)C1=O
T/C (dose: 25.0 mg/kg/injection, schedule: Q01DX001 (ip), vehicle: carboxymethylcellulose (CMC)): 104 % of control | T/C (dose: 50.0 mg/kg/injection, schedule: Q01DX001 (ip), vehicle: carboxymethylcellulose (CMC)): 95 % of control | T/C (dose: 100.0 mg/kg/injection, schedule: Q01DX001 (ip), vehicle: carboxymethylcellulose (CMC)): 101 % of control

CC(=O)OCC(Cl)C(Cl)CCl (stereo not drawn)
T/C [1]: 96 % of control | T/C [3]: 95 % of control | T/C [4]: 95 % of control

N#Cc1cccc(/C=C/C=C\c2ccc([N+](=O)[O-])cc2)c1
T/C (dose: 100.0 mg/kg/injection, schedule: Q01DX009 (ip), vehicle: Klucel (hydroxypropylcellulose) (HPC)): 89 % of control | T/C [2]: 95 % of control

Cc1c(Cl)cccc1NC(=O)COc1ccc(Cl)cc1Cl
T/C (dose: 100.0 mg/kg/injection, schedule: Q01DX009 (ip), vehicle: saline with Tween-80): 88 % of control | T/C (dose: 200.0 mg/kg/injection, schedule: Q01DX009 (ip), vehicle: saline with Tween-80): 93 % of control | T/C (dose: 400.0 mg/kg/injection, schedule: Q01DX009 (ip), vehicle: saline with Tween-80): 98 % of control

Nc1nc2nc(-c3ccc([N+](=O)[O-])cc3)nc(N)c2nc1-c1ccc(N(CCCl)CCCl)cc1
T/C (dose: 100.0 mg/kg/injection, schedule: Q01DX001 (ip), vehicle: saline): 96 % of control | T/C (dose: 200.0 mg/kg/injection, schedule: Q01DX001 (ip), vehicle: saline): 95 % of control | T/C (dose: 400.0 mg/kg/injection, schedule: Q01DX001 (ip), vehicle: saline): 101 % of control

CC(=O)N1CCC(Cc2ccccc2)CC1
T/C (dose: 75.0 mg/kg/injection, schedule: Q01DX009 (ip), vehicle: saline with Tween-80): 104 % of control

CCCCN(CCCC)CC(O)c1cc(Cl)cc2cccnc12 (stereo not drawn)
T/C (dose: 12.5 mg/kg/injection, schedule: Q01DX009 (ip), vehicle: Klucel (hydroxypropylcellulose) (HPC)): 106 % of control | T/C (dose: 25.0 mg/kg/injection, schedule: Q01DX009 (ip), vehicle: Klucel (hydroxypropylcellulose) (HPC)): 98 % of control | T/C (dose: 50.0 mg/kg/injection, schedule: Q01DX009 (ip), vehicle: Klucel (hydroxypropylcellulose) (HPC)): 109 % of control

O=C(NC1CSSC1)C(Cc1ccccc1)N1C(=O)c2ccccc2C1=O (stereo not drawn)
T/C (dose: 6.25 mg/kg/injection, schedule: Q01DX009 (ip), vehicle: water): 94 % of control | T/C (dose: 12.5 mg/kg/injection, schedule: Q01DX009 (ip), vehicle: water): 96 % of control | T/C (dose: 25.0 mg/kg/injection, schedule: Q01DX009 (ip), vehicle: water): 107 % of control | T/C (dose: 50.0 mg/kg/injection, schedule: Q01DX009 (ip), vehicle: water): 96 % of control and 88 % of control | T/C (dose: 100.0 mg/kg/injection, schedule: Q01DX009 (ip), vehicle: water): 87 % of control and 91 % of control | T/C (dose: 200.0 mg/kg/injection, schedule: Q01DX009 (ip), vehicle: water): 98 % of control | T/C (dose: 400.0 mg/kg/injection, schedule: Q01DX009 (ip), vehicle: water): 96 % of control

Cc1c(Cl)c(C)c(Cl)c(CCl)c1Cl
T/C (dose: 100.0 mg/kg/injection, schedule: Q01DX009 (ip), vehicle: saline sonified): 100 % of control | T/C [1]: 97 % of control | T/C (dose: 200.0 mg/kg/injection, schedule: Q01DX009 (ip), vehicle: saline sonified): 95 % of control | T/C [3]: 89 % of control | T/C (dose: 400.0 mg/kg/injection, schedule: Q01DX009 (ip), vehicle: saline sonified): 91 % of control | T/C [4]: 92 % of control

C[C@H](OC(=O)CCl)[C@@H](C)OC(=O)CCl
T/C (dose: 50.0 mg/kg/injection, schedule: Q01DX001 (sc), vehicle: carboxymethylcellulose (CMC)): 109 % of control | T/C (dose: 100.0 mg/kg/injection, schedule: Q01DX001 (sc), vehicle: carboxymethylcellulose (CMC)): 88 % of control

NC(=S)N/N=C\c1nccc2c(N)cccc12
T/C (dose: 6.25 mg/kg/injection, schedule: Q01DX009 (ip), vehicle: saline with Tween-80): 122 % of control | T/C (dose: 50.0 mg/kg/injection, schedule: Q01DX009 (ip), vehicle: saline with Tween-80): 187 % of control
